Here are results for 19 molecules from patent US12281122B1, “PI3K inhibitors” (Cogent Biosciences, Inc., priority 2023, dated 2025).

Assay [1] has as its system T47D (PI3Kα-H1047R) cell line. Kind of assay: HTRF phospho-AKT(S473) cell assay in T47D cells. The class given is cell-based, human. In short, it runs like this:
(§1)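 Cells plated overnight (T47D in RPMI/10% FBS/0.2 units/mL insulin; SKBR3 in McCoy's 5A/10% FBS), then given 12-point 1:3 compound series (top 5 μM T47D, 10 μM SKBR3; ≤0.5% DMSO) for 2 h at 37° C. SKBR3 stimulated with 70 ng/ml PDGF-BB for final 15 min. Lysate pAKT(S473) by HTRF; IC50 calculated.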

The subject of assay [2] is SKBR3 (PI3Kα-Wild Type) cell line. Kind of assay: HTRF phospho-AKT(S473) cell assay in SKBR3 cells. The class given is cell-based, human. The method in brief:
as §1

Where [3] appears, read: Homo sapiens; HTRF phospho-AKT(S473), T47D (PI3Kα-H1047R) cells, 2 hours compound incubation.
Where [4] appears, read: Homo sapiens, SK-BR-3; HTRF phospho-AKT(S473), SKBR3 (PI3Kα-Wild Type) cells, 2 hours compound incubation, PDGF-BB stimulated.
The mark [5] stands for this setting: Homo sapiens; T47D (PI3Kα-H1047R) cells, HTRF phospho-AKT(S473), 2 hours compound incubation.
The mark [6] stands for this setting: Homo sapiens, SK-BR-3; SKBR3 (PI3Kα-Wild Type) cells, HTRF phospho-AKT(S473), 2 hours compound incubation, PDGF-BB stimulated.

Consider `Cc1cc([C@@H](C)Nc2ccc(Cl)nc2C(=O)NS(C)(=O)=O)c2nc(N3Cc4nccnc4C3)n(C)c(=O)c2c1` [Compound 534, (R)-6-chloro-3-((1-(2-(5,7-dihydro-6H-pyrrolo[3,4-b]pyrazin-6-yl)-3,6-dimethyl-4-oxo-3,4-dihydroquinazolin-8-yl)ethyl)amino)-N-(methylsulfonyl) picolinamide], for which the IC50 was less than 250 nM in assay [1] (setting [3]) and 1000 to 5000 nM in assay [2] (setting [4]).

With `Cc1cc([C@@H](C)Nc2ccc(Cl)nc2C(=O)NS(C)(=O)=O)c2nc(-c3ccnc(O[C@@H]4CCNCC4(F)F)c3)n(C)c(=O)c2c1` [Compound 808, 6-chloro-3-(((R)-1-(2-(2-(((R)-3,3-difluoropiperidin-4-yl)oxy)pyridin-4-yl)-3,6-dimethyl-4-oxo-3,4-dihydroquinazolin-8-yl)ethyl)amino)-N-(methylsulfonyl) picolinamide], the IC50 in assay [1] (setting [3]) was 250 to 500 nM; in assay [2] (setting [4]) it was not below 5000 nM.

With `Cc1cc([C@@H](C)Nc2ccc(Cl)nc2C(=O)NS(C)(=O)=O)c2nc(N3Cc4cn(C5COC5)nc4C3)n(C)c(=O)c2c1` [Compound 290, (R)-6-chloro-3-((1-(3,6-dimethyl-2-(2-(oxetan-3-yl)-2,6-dihydropyrrolo[3,4-c]pyrazol-5(4H)-yl)-4-oxo-3,4-dihydroquinazolin-8-yl)ethyl)amino)-N-(methylsulfonyl) picolinamide], the IC50 in assay [1] (setting [5]) is less than 250 nM; in assay [2] (setting [6]), 1000 to 5000 nM.

As for `Cc1cc([C@@H](C)Nc2ccc(Cl)nc2C(=O)NS(C)(=O)=O)c2nc(-c3ccc(-c4ccn(C)n4)c(F)c3)n(C)c(=O)c2c1` [Compound 787, (R)-6-chloro-3-((1-(2-(3-fluoro-4-(1-methyl-1H-pyrazol-3-yl)phenyl)-3,6-dimethyl-4-oxo-3,4-dihydroquinazolin-8-yl)ethyl)amino)-N-(methylsulfonyl) picolinamide], the values for the IC50 in assay [1] (setting [3]) and in assay [2] (setting [4]) were less than 250 nM and 1000 to 5000 nM, respectively.

As for `Cc1cc([C@@H](C)Nc2ccc(Cl)nc2C(=O)NS(C)(=O)=O)c2nc(N3CCC(c4nc(C)no4)CC3)n(C)c(=O)c2c1` [Compound 595, (R)-6-chloro-3-((1-(3,6-dimethyl-2-(4-(3-methyl-1,2,4-oxadiazol-5-yl)piperidin-1-yl)-4-oxo-3,4-dihydroquinazolin-8-yl)ethyl)amino)-N-(methylsulfonyl) picolinamide], the IC50 in assay [1] (setting [3]) is less than 250 nM; in assay [2] (setting [4]) it was 1000 to 5000 nM.

Regarding `[2H]C([2H])([2H])n1ccc([C@H]2[C@@H]3CN(c4nc5c([C@@H](C)Nc6ccc(Cl)nc6C(=O)NS(C)(=O)=O)cc(C)cc5c(=O)n4CC)C[C@@H]32)n1` [Compound 731, 6-chloro-3-(((R)-1-(3-ethyl-6-methyl-2-((1R,5S,6R)-6-(1-(methyl-d3)-1H-pyrazol-3-yl)-3-azabicyclo[3.1.0]hexan-3-yl)-4-oxo-3,4-dihydroquinazolin-8-yl)ethyl)amino)-N-(methylsulfonyl) picolinamide], the IC50 in assay [1] (setting [3]) is less than 250 nM; in assay [2] (setting [4]), 1000 to 5000 nM.

Consider `Cc1cc([C@@H](C)Nc2ccc(Cl)nc2C(=O)NS(C)(=O)=O)c2nc(N3CCN(c4cc(C)nc(C)n4)CC3)n(C)c(=O)c2c1` [Compound 617, (R)-6-chloro-3-((1-(2-(4-(2,6-dimethylpyrimidin-4-yl)piperazin-1-yl)-3,6-dimethyl-4-oxo-3,4-dihydroquinazolin-8-yl)ethyl)amino)-N-(methylsulfonyl) picolinamide], for which the 50% inhibitory concentration (IC50) in assay [1] (setting [3]) was 250 to 500 nM; in assay [2] (setting [4]), not below 5000 nM.

Consider `Cc1cc([C@@H](C)Nc2ccc(Cl)nc2C(=O)NS(C)(=O)=O)c2nc(-c3ccc(-c4ccn(C)n4)cn3)n(C)c(=O)c2c1` [Compound 838, (R)-6-chloro-3-((1-(3,6-dimethyl-2-(5-(1-methyl-1H-pyrazol-3-yl)pyridin-2-yl)-4-oxo-3,4-dihydroquinazolin-8-yl)ethyl)amino)-N-(methylsulfonyl) picolinamide], for which the IC50 in assay [1] (setting [3]) was in the range of 250 to 500 nM; in assay [2] (setting [4]), 1000 to 5000 nM.

Consider `COc1cnc([C@H]2[C@@H]3CN(c4nc5c([C@@H](C)Nc6ccc(Cl)nc6C(=O)NS(C)(=O)=O)cc(C)cc5c(=O)n4C)C[C@@H]32)cn1` [Compound 641, 6-chloro-3-(((R)-1-(2-((1R,5S,6R)-6-(5-methoxypyrazin-2-yl)-3-azabicyclo[3.1.0]hexan-3-yl)-3,6-dimethyl-4-oxo-3,4-dihydroquinazolin-8-yl)ethyl)amino)-N-(methylsulfonyl) picolinamide], for which the IC50 in assay [1] (setting [3]) is 250 to 500 nM; in assay [2] (setting [4]), not below 5000 nM.

For the molecule `Cc1cc([C@@H](C)Nc2ccc(Cl)nc2C(=O)NS(C)(=O)=O)c2nc(C3CCN(c4ncc(C#N)cc4C)CC3)n(C)c(=O)c2c1` [Compound 837, (R)-6-chloro-3-((1-(2-(1-(5-cyano-3-methylpyridin-2-yl)piperidin-4-yl)-3,6-dimethyl-4-oxo-3,4-dihydroquinazolin-8-yl)ethyl)amino)-N-(methylsulfonyl) picolinamide], the IC50 in assay [1] (setting [3]) lay in the range of 250 to 500 nM; in assay [2] (setting [4]) it was 1000 to 5000 nM.

For the molecule `COc1ccc(C2CCN(c3nc4c([C@@H](C)Nc5ccc(Cl)nc5C(=O)NS(C)(=O)=O)cc(C)cc4c(=O)n3C)CC2)cn1` [Compound 700, (R)-6-chloro-3-((1-(2-(4-(6-methoxypyridin-3-yl)piperidin-1-yl)-3,6-dimethyl-4-oxo-3,4-dihydroquinazolin-8-yl)ethyl)amino)-N-(methylsulfonyl) picolinamide], the half-inhibitory concentration (IC50) was 250 to 500 nM in assay [1] (setting [3]) and not below 5000 nM in assay [2] (setting [4]).

Turning to `Cc1cc([C@@H](C)Nc2ccc(Cl)nc2C(=O)NS(C)(=O)=O)c2nc(N3CCc4nn(CC5CC5)cc4C3)n(C)c(=O)c2c1` [Compound 279, (R)-6-chloro-3-((1-(2-(2-(cyclopropylmethyl)-2,4,6,7-tetrahydro-5H-pyrazolo[4,3-c]pyridin-5-yl)-3,6-dimethyl-4-oxo-3,4-dihydroquinazolin-8-yl)ethyl)amino)-N-(methylsulfonyl) picolinamide], the IC50 in assay [1] (setting [5]) was less than 250 nM; in assay [2] (setting [6]), 1000 to 5000 nM.

Regarding `Cc1cc([C@@H](C)Nc2ccc(Cl)nc2C(=O)NS(C)(=O)=O)c2nc(N3CCC(c4ncn(C)n4)CC3)n(C)c(=O)c2c1` [Compound 253, (R)-6-chloro-3-((1-(3,6-dimethyl-2-(4-(1-methyl-1H-1,2,4-triazol-3-yl)piperidin-1-yl)-4-oxo-3,4-dihydroquinazolin-8-yl)ethyl)amino)-N-(methylsulfonyl) picolinamide], the values for the IC50 in assay [1] (setting [5]) and in assay [2] (setting [6]) were 250 to 500 nM and 1000 to 5000 nM, respectively.

As to `Cc1cc([C@@H](C)Nc2ccc(Cl)nc2C(=O)NS(C)(=O)=O)c2nc(N3C[C@@H]4[C@H](C3)[C@H]4c3cc(C)nn3C3CC3)n(C)c(=O)c2c1` [Compound 568, 6-chloro-3-(((R)-1-(2-((1R,5S,6R)-6-(1-cyclopropyl-3-methyl-1H-pyrazol-5-yl)-3-azabicyclo[3.1.0]hexan-3-yl)-3,6-dimethyl-4-oxo-3,4-dihydroquinazolin-8-yl)ethyl)amino)-N-(methylsulfonyl) picolinamide], the IC50 in assay [1] (setting [3]) lay in the range of 250 to 500 nM; in assay [2] (setting [4]), 1000 to 5000 nM.

As for `Cc1cc([C@@H](C)Nc2ccc(Cl)nc2C(=O)NS(C)(=O)=O)c2nc(N3CCC(c4ccn(C5CC5)n4)CC3)n(C)c(=O)c2c1` [Compound 267, (R)-6-chloro-3-((1-(2-(4-(1-cyclopropyl-1H-pyrazol-3-yl)piperidin-1-yl)-3,6-dimethyl-4-oxo-3,4-dihydroquinazolin-8-yl)ethyl)amino)-N-(methylsulfonyl) picolinamide], the IC50 in assay [1] (setting [5]) is less than 250 nM; in assay [2] (setting [6]) it was 1000 to 5000 nM.

As for `Cc1cc([C@@H](C)Nc2ccc(Cl)nc2C(=O)NS(C)(=O)=O)c2nc(N3C[C@@H]4[C@H](C3)[C@H]4c3cn(C(C)C)nn3)n(C)c(=O)c2c1` [Compound 528, 6-chloro-3-(((R)-1-(2-((1R,5S,6R)-6-(1-isopropyl-1H-1,2,3-triazol-4-yl)-3-azabicyclo[3.1.0]hexan-3-yl)-3,6-dimethyl-4-oxo-3,4-dihydroquinazolin-8-yl)ethyl)amino)-N-(methylsulfonyl) picolinamide], the IC50 in assay [1] (setting [3]) was less than 250 nM; in assay [2] (setting [4]) it was 1000 to 5000 nM.

Take `Cc1cc([C@@H](C)Nc2ccc(Cl)nc2C(=O)NS(=O)(=O)c2ccncc2)c2nc(N3Cc4ccc(F)cc4C3)n(C)c(=O)c2c1` [Compound 170, (R)-6-chloro-3-((1-(2-(5-fluoroisoindolin-2-yl)-3,6-dimethyl-4-oxo-3,4-dihydroquinazolin-8-yl)ethyl)amino)-N-(pyridin-4-ylsulfonyl)picolinamide]: the figures for the IC50 in assay [1] (setting [5]) and in assay [2] (setting [6]) were less than 250 nM and not below 5000 nM, respectively.

On to `Cc1cc([C@@H](C)Nc2ccc(Cl)nc2C(=O)NS(C)(=O)=O)c2nc(N3C[C@@H]4[C@@H](COc5ccnn5C)[C@@H]4C3)n(C)c(=O)c2c1` [Compound 341, 6-chloro-3-(((R)-1-(3,6-dimethyl-2-((1R,5S,6R)-6-(((1-methyl-1H-pyrazol-5-yl)oxy)methyl)-3-azabicyclo[3.1.0]hexan-3-yl)-4-oxo-3,4-dihydroquinazolin-8-yl)ethyl)amino)-N-(methylsulfonyl) picolinamide], for which the IC50 in assay [1] (setting [5]) was less than 250 nM; in assay [2] (setting [6]), 1000 to 5000 nM.

Take `CCn1c(N2C[C@@H]3[C@H](C2)[C@H]3c2cn(C)nn2)nc2c([C@@H](C)Nc3ccc(Cl)nc3C(=O)NS(C)(=O)=O)cc(C)cc2c1=O` [Compound 622, 6-chloro-3-(((R)-1-(3-ethyl-6-methyl-2-((1R,5S,6R)-6-(1-methyl-1H-1,2,3-triazol-4-yl)-3-azabicyclo[3.1.0]hexan-3-yl)-4-oxo-3,4-dihydroquinazolin-8-yl)ethyl)amino)-N-(methylsulfonyl) picolinamide]: the IC50 in assay [1] (setting [3]) was less than 250 nM; in assay [2] (setting [4]), 1000 to 5000 nM.
